Paper PMC12670160, “A drug-repurposing screen of FDA- and EMA-approved drugs identifies two NF-κB inhibitors active against eumycetoma” (Journal of Antimicrobial Chemotherapy, 2025)
≈ marks a conversion by molar mass, not a printed value. Where a name gives a salt, the structure may show the parent alone. Read-outs that look alike come from different tables or passages of the source.

What was measured:
[1] = test system: M. mycetomatis MM55-infected G. mellonella larvae; test: Therapeutic efficacy in M. mycetomatis-infected G. mellonella larvae (survival, log-rank); assay type: in vivo, Galleria mellonella
Method: (§1) For in vivo experiments, sixth-week instar G. mellonella larvae were purchased from Blue-Lagoon, Maassluis, The Netherlands. The larvae were raised and kept in the dark at room temperature. Larvae without any discoloration and weighing around 500 mg were selected for experiments.
The wet weight was determined and 10 mL of PBS per gram of mycelia was added. The suspension was then sonicated for 2 min to achieve a particle size of 10 µm. The fungal suspension (4 mg/40 µL) was injected into the last left pro-leg of a healthy G. mellonella larva with an insulin 29G U-100 needle to reach a final inoculum of 4 mg/larva. Larvae were placed in Petri dishes containing Whatman paper in a 37°C incubator.
A control group was also included in which M. mycetomatis-infected larvae were treated with PBS or with 1 mg/kg amphotericin B (Fungizone, Bristol Myers Squibb, Utrecht, The Netherlands). […] The treatment was repeated at 28 h post infection and 52 h post infection via different prolegs. The infection was monitored for 10 days.
To compare the survival rates between PBS treatment control and the different experimental groups a log-rank test was performed. All data were processed and performed in GraphPad Prism 10.

M. mycetomatis [2] = test: In vitro susceptibility, averages over M. mycetomatis isolates (average metabolic activity at 2 µM, mean MIC); assay type: cell-based; details: Madurella mycetomatis, 96 h, 4 days at 37°C, CellTiter-Glo, average of 3 isolates, 20% or below = inhibition
Method: M. mycetomatis isolate MM55 was used to screen the Oncode library. This strain was kindly provided by Prof. […] The three M. mycetomatis isolates were identified by ITS sequencing and maintained at −80°C at Erasmus MC. Prior to in vitro screening, isolates were cultured on Sabouraud agar plates (BD, Erembodegem, Belgium) at 37°C.
The Oncode Drug Repurposing library was based on the drug repurposing library from the Drug Repurposing Hub of the Broad Institute and recreated by the Oncode institute.[13] […] Each well of the 384-well plates contained 0.6 µL of a 200 µM stock concentration of compound, resulting in a final concentration of 2 µM when the fungus was added. […] Furthermore, this concentration could also be reached in the G. mellonella larvae.[8],[11] The prepared 384-well plates were transferred on dry ice to the Erasmus MC and stored at −80°C until they were screened.
Each plate also contained a growth control (60 µL of M. mycetomatis hyphal suspension, plus 0.6 µL of DMSO) and a negative control (60 µL of culture medium, plus 0.6 µL of DMSO). Plates were then incubated for 4 days at 37°C, after which 30 µL of CellTiter-Glo 3D Cell Viability reagent was added to every well.[19] After 25 min of incubation at room temperature, the luminescence was measured with a CytoFluor Series 4000 luminometer (PerSeptive Biosystems, Framingham, MA, USA). To determine the metabolic activity, the following formula was used:
Percentagemetabolicactivity=(Absorbancetestluminensence−AbsorbanceNCluminensence/AbsorbanceGCluminensence−AbsorbanceNCluminensence)×100
where, GC is growth control and NC is negative control. The luminescence measured for the GC is considered as 100% metabolic activity. The luminescence for the NC is considered as 0% metabolic activity.

M. mycetomatis strain P1 = test: IC50 and MIC determination, CellTiter-Glo, strain P1; assay type: cell-based, Madurella mycetomatis; details: Madurella mycetomatis, P1
M. mycetomatis strain I1 = test: IC50 and MIC determination, CellTiter-Glo, strain I1; assay type: cell-based, Madurella mycetomatis; details: Madurella mycetomatis, I1
[3] = test system: M. mycetomatis strain mm55; test: IC50 and MIC determination, CellTiter-Glo, strain mm55; assay type: cell-based, Madurella mycetomatis; details: Madurella mycetomatis; for IC50: concentration inhibiting 50% of fungal hyphae growth; for MIC: concentration with complete growth inhibition
[4] = test system: healthy uninfected G. mellonella larvae
Method: as §1
To determine the toxicity, 15 healthy uninfected larvae were injected with 20 µL of 20 µM compound as previously described.[16] […] As a control, a separate group of larvae were injected with 20 µL of PBS. Larvae were housed in Petri dishes with Whatman paper at 37°C in the dark. Survival was monitored for 10 days.

M. mycetomatis [5] = test: In vitro susceptibility, averages over M. mycetomatis isolates (average metabolic activity at 2 µM, mean MIC); assay type: cell-based, Madurella mycetomatis; details: Madurella mycetomatis; mean/average over strains MM55, P1 and I1
[6] = 20 µL of 20 µM at 4, 28 and 52 h post infection, 10 days
[7] = 20 µL of 10 µM at 4, 28 and 52 h post infection, 10 days
[8] = 20 µL of 20 µM injected, 10 day observation, toxic if more than 20% of larvae died

| SMILES | Survival of M. mycetomatis-infected larvae versus PBS ([1]; 1 mg/kg amphotericin B, infected treated control) | Survival of M. mycetomatis-infected larvae versus PBS [1, 6] | activity at 2 µM (M. mycetomatis [2]) [%] | IC50 (M. mycetomatis strain P1) [µM] | MIC (M. mycetomatis strain P1) [µM] | IC50 (M. mycetomatis strain I1) [µM] | MIC (M. mycetomatis strain I1) [µM] | IC50 [3] [µM] | MIC [3] [µM] | Toxicity in G. mellonella larvae at 20 µM ([4]; in vivo) | Survival of M. mycetomatis-infected larvae versus PBS [1, 7] | Toxicity in G. mellonella larvae at 20 µM [4, 8] | MIC (M. mycetomatis [5]) [µM] |
| --- | --- | --- | --- | --- | --- | --- | --- | --- | --- | --- | --- | --- | --- |
| C[C@@H]1[C@H](O)[C@@H](C)/C=C/C=C/C=C/C=C/C=C/C=C/C=C/[C@H](O[C@@H]2O[C@H](C)[C@@H](O)[C@H](N)[C@@H]2O)C[C@@H]2O[C@](O)(C[C@@H](O)C[C@@H](O)[C@H](O)CC[C@@H](O)C[C@@H](O)CC(=O)O[C@H]1C)C[C@H](O)[C@H]2C(=O)O [amphotericin B] | prolonged the survival |  |  |  |  |  |  |  |  |  |  |  |  |
| Oc1c(I)cc(Cl)c2cccnc12 [Clioquinol] |  | No prolonged survival | 0 | 0.38 | 0.5 (≈ 0.153 µg/mL) | 1.7 | 2 (≈ 0.611 µg/mL) | 1.2 | 2 (≈ 0.611 µg/mL) | not toxic |  |  |  |
| Oc1c(Br)cc(Br)c2cccnc12 [Broxyquinoline] |  | No prolonged survival | 3.3 | 0.56 | 2 (≈ 0.606 µg/mL) | 1.29 | 2 (≈ 0.606 µg/mL) | 1.6 | 2 (≈ 0.606 µg/mL) | not toxic |  |  |  |
| C/C(=N\NC(=S)N1CCC1)c1ccccn1 [nsc319726] |  |  | 4.1 | 0.74 | 2 (≈ 0.469 µg/mL) | 1.04 | 2 (≈ 0.469 µg/mL) | 1.61 | 2 (≈ 0.469 µg/mL) |  | No prolonged survival | toxicity was noted |  |
| CC(C)(C)c1cc(C=C(C#N)C#N)cc(C(C)(C)C)c1O [Tyrphostin 9] |  |  | 1.5 | 1.22 | 2 (≈ 0.565 µg/mL) | 0.78 | 1 (≈ 0.282 µg/mL) | 1.36 | 2 (≈ 0.565 µg/mL) |  | Decreased survival | toxicity was noted |  |
| Cc1ccc2c(Br)cc(Br)c(OC(=O)c3ccccc3)c2n1 [Broxaldine] |  | No prolonged survival | 4.8 | 0.63 | 1 (≈ 0.421 µg/mL) | 1.31 | 2 (≈ 0.842 µg/mL) | 1.25 | 2 (≈ 0.842 µg/mL) | not toxic |  |  |  |
| Fc1ccc(C(c2ccccc2)(c2ccccc2F)n2ccnc2)cc1 (stereo not shown) [Flutrimazole] |  |  | 0 | 0.37 | 0.5 (≈ 0.173 µg/mL) | 0.42 | 0.5 (≈ 0.173 µg/mL) | 0.92 | 2 (≈ 0.693 µg/mL) |  |  |  |  |
| C[C@@H](c1nc(-c2ccc(C#N)cc2)cs1)[C@](O)(Cn1cncn1)c1cc(F)ccc1F [Isavuconazole] |  |  | 2.1 | < 0.03 | 0.03 (≈ 0.0131 µg/mL) | 0.05 | 0.06 (≈ 0.0262 µg/mL) | 0.43 | 1 (≈ 0.437 µg/mL) |  |  |  |  |
| C=C(c1ccccc1OCc1cccc(Cl)c1)n1ccnc1 [Cloconazole HCl] |  |  | 1.7 | 0.74 | 1 | 0.41 | 0.5 | 0.85 | 1 |  |  |  |  |
| CCCCC(CC)CNC(=N)NC(=N)NCCCCCCNC(=N)NC(=N)NCC(CC)CCCC (stereo not shown) [Alexidine dihydrochloride] |  |  | 4.4 | 1.78 | > 2 | 0.8 | > 2 | 1.32 | 2 |  |  |  | > 2 |
| C=CCOC(Cn1ccnc1)c1ccc(Cl)cc1Cl (stereo not shown) [Enilconazole sulphate] |  |  | 1.3 | 0.56 | 1 | 0.42 | 0.5 | 1.25 | 2 |  |  |  |  |
| OCCCNc1cc(-c2ccnc(Nc3cccc(Cl)c3)n2)ccn1 [cgp60474] |  | No prolonged survival | 7.4 | 0.64 | 1 (≈ 0.356 µg/mL) | 0.81 | 1 (≈ 0.356 µg/mL) | 1.55 | 2 (≈ 0.712 µg/mL) | not toxic |  |  |  |
